How the values were obtained:
[1] = molecular target: human A2a adenosine receptor (Homo sapiens (Human), UniProt P29274); assay: A2a receptor affinity radioligand binding assay ([3H] SCH58261, membranes from HEK293 or CHO cells); settings: for IC50: unstarred values: radioligand binding
Protocol: The A2a receptor affinity binding assay measured the amount of binding of a tritiated ligand with high affinity for the A2a adenosine receptor to membranes made from HEK293 or CHO cells recombinantly expressing the human A2a adenosine receptor, in the presence of varying concentrations of a compound of the invention.
Measurement of A2a Binding Affinity Using Radioligand Binding
148 μL, (5 μg/mL) membranes (Perkin Elmer, Cat. No. RBHA2aM4001A) and 2 μL compounds of the invention to be tested (test compound) were transferred to individual wells of a 96-well polypropylene assay plate and incubated for 15 to 30 minutes at room temperature. [^3H] SCH58261 ((7-(2-phenylethyl)-5-amino-2-(2-furyl)-pyrazolo-[4,3-e]-1,2,4-triazolo[1,5-c]pyrimidine)) was diluted in assay buffer (50 mM Tris pH 7.4, 10 mM MgCl2, 0.005% Tween20) to a concentration of 4 nM and 50 μL transferred to each well of the assay plate. […] The assay plate was incubated at room temperature for 60 minutes with agitation. […] Filtering was achieved by aspirating the contents of the assay plate for 5 seconds, then washing and aspirating the contents three times with ice-cooled wash buffer (50 mM Tris-HCl pH 7.4, 150 mM NaCl) and allowing the vacuum manifold to dry the plate for 30 seconds. The filter plate was incubated for at least 1 hour at 55° C. and allowed to dry. The bottom of the filter plate was sealed with backing tape. 40 μL. […] The plate was incubated for at least 20 minutes, and then the amount of radioactivity remaining in each well was determined using a TopCown® (Perkin Elmer) scintillation counter. After normalization to total and non-specific binding, the percent effect at each compound concentration was calculated. The plot of percent effect versus the log of compound concentration was analyzed electronically using a 4-parameter logistic fit based on the Levenberg-Marquardt algorithm to generate IC50 values.

[2] = molecular target: human A2b adenosine receptor (Homo sapiens (Human), UniProt P29275); assay: A2b radioligand filtration binding assay (tritiated proprietary A2b antagonist, HEK293 membranes); settings: for IC50: unstarred values: radioligand binding; for A2B binding % inh. @ 10000 nM: unstarred
Chain of human A2b adenosine receptor (P29275 whole entry): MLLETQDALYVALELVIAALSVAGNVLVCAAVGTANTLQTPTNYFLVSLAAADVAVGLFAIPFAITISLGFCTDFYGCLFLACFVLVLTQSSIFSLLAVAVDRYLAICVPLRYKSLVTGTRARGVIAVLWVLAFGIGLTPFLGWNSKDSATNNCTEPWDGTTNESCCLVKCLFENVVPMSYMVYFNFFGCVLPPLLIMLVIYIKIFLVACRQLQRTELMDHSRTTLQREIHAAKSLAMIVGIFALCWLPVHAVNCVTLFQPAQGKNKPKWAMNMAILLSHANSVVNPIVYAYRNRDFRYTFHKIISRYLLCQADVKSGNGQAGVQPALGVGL
Protocol: Measurement of A2b Binding Affinity
The reported affinity of the compounds of the invention for the human A2b adenosine receptor was determined experimentally using a radioligand filtration binding assay. This assay measures the amount of binding of a tritiated proprietary A2b receptor antagonist, in the presence and absence of a compound of the invention, to membranes made from HEK293 cells recombinantly expressing the human A2b adenosine receptor (Perkin Elmer, Cat. No. ES-013-C).
The filter plate was incubated for at least 1 hour at 55° C. and allowed to dry. The bottom of the filter plate was then sealed with backing tape. […] The plates were then incubated for at least 20 minutes, and then the amount of radioactivity remaining in each well was determined using a TopCount® (Perkin Elmer) scintillation counter. After normalization to total and non-specific binding, the percent effect at each compound concentration was calculated. The plot of percent effect versus the log of compound concentration was analyzed electronically using a 4-parameter logistic fit based on the Levenberg-Marquardt algorithm to generate IC50 values.

Chain of human A2a adenosine receptor (P29274 whole entry): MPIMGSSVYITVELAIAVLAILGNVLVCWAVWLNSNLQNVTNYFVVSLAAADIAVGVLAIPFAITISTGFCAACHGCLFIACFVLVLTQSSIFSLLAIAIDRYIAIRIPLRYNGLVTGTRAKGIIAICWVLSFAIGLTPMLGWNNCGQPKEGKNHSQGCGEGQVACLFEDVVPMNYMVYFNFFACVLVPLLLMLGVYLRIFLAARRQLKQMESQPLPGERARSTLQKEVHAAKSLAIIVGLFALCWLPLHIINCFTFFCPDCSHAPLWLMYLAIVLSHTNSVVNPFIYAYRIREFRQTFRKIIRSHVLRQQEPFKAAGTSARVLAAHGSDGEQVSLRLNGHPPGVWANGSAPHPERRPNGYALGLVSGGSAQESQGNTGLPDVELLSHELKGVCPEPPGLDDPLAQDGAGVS

SMILES	IC50 [1]	IC50 [2]	A2B binding % inh. @ 10000 nM [2]	A2A binding % inh. @ 10000 nM ([1]; @ 10000 nM, unstarred)
Cn1cc(N2CCCC(c3nc4c5ccc(F)cc5nc(N)n4n3)C2)cn1 (single isomer, unassigned) [Example 168, (R or S)-8-fluoro-2-(1-(1-methyl-1H-pyrazol-4-yl)piperidin-3-yl)-[1,2,4]triazolo[1,5-c]quinazolin-5-amine]	17.4 nM	150 nM		
Cn1cc(N2CCCC(c3nc4c5c(Cl)ccc(Cl)c5nc(N)n4n3)C2)cn1 (single isomer, unassigned) [Example 169, (R or S)-7, 10-dichloro-2-(1-(1-methyl-1H-pyrazol-4-yl)piperidin-3-yl)-[1,2,4]triazolo[1,5-c]quinazolin-5-amine]	7.7 nM	4160 nM		
Cn1cc(N2CCCC(c3nc4c5c(C(F)(F)F)cccc5nc(N)n4n3)C2)cn1 (single isomer, unassigned) [Example 170, (R or S)-2-(1-(1-methyl-1H-pyrazol-4-yl)piperidin-3-yl)-10-(trifluoromethyl)-[1,2,4]triazolo[1,5-c]quinazolin-5-amine]	204 nM		28% inh. @ 10000 nM	
Cc1cccc2c1nc(N)n1nc(C3CCCN(c4cnn(C)c4)C3)nc21 (single isomer, unassigned) [Example 171, (R or S)-7-methyl-2-(1-(1-methyl-1H-pyrazol-4-yl)piperidin-3-yl)-[1,2,4]triazolo[1,5-c]quinazolin-5-amine]	34.9 nM	956 nM		
Cn1cc(N2CCCC(c3nc4c5c(F)ccc(F)c5nc(N)n4n3)C2)cn1 (single isomer, unassigned) [Example 172, (R or S)-7,10-difluoro-2-(1-(1-methyl-1H-pyrazol-4-yl)piperidin-3-yl)-[1,2,4]triazolo[1,5-c]quinazolin-5-amine]	34.2 nM	375 nM		
COc1c(Cl)ccc2c1nc(N)n1nc(C3CCCN(c4cnn(C)c4)C3)nc21 (single isomer, unassigned) [Example 173, (R or S)-8-chloro-7-methoxy-2-(1-(1-methyl-1H-pyrazol-4-yl)piperidin-3-yl)-[1,2,4]triazolo[1,5-c]quinazolin-5-amine]	3.6 nM	403 nM		
Cn1cc(N2CCCC(c3nc4c5ccc(C(F)(F)F)cc5nc(N)n4n3)C2)cn1 (single isomer, unassigned) [Example 174, (R or S)-2-(1-(1-methyl-1H-pyrazol-4-yl)piperidin-3-yl)-8-(trifluoromethyl)-[1,2,4]triazolo[1,5-c]quinazolin-5-amine]	44.3 nM	480 nM		
Cc1ccc2c(c1)nc(N)n1nc(C3CCCN(c4cnn(C)c4)C3)nc21 (single isomer, unassigned) [Example 199, (R or S)-8-methyl-2-(1-(1-methyl-1H-pyrazol-4-yl)piperidin-3-yl)-[1,2,4]triazolo[1,5-c]quinazolin-5-amine]	22.5 nM	257 nM		
Cn1cc(N2CCCC(c3nc4c5ccc(Cl)cc5nc(N)n4n3)C2)cn1 (single isomer, unassigned) [Example 200, (R or S)-8-chloro-2-(1-(1-methyl-1H-pyrazol-4-yl)piperidin-3-yl)-[1,2,4]triazolo[1,5-c]quinazolin-5-amine]	11.8 nM	152 nM		
C[C@H]1CC[C@@H](c2nc3c4ccc(C5CNC5)cc4nc(N)n3n2)CN1c1cnn(CC(C)(C)O)c1 (single isomer, unassigned) [Example 208, 1-(4-((2S,5R or 2R,5S)-5-(5-amino-8-(azetidin-3-yl)-[1,2,4]triazolo[1,5-c]quinazolin-2-yl)-2-methylpiperidin-1-yl)-1H-pyrazol-1-yl)-2-methylpropan-2-ol]			5% inh. @ 10000 nM	10% inh @ 10000 nM % inh.
COc1cccc2c1nc(N)n1nc([C@@H]3CCCN(c4cnn(CC5(O)CCC5)c4)C3)nc21 [Example 23, (R)-1-((4-(3-(5-amino-7-methoxy-[1,2,4]-triazolo[1,5-c]quinazolin-2-yl)piperidin-1-yl)-1H-pyrazol-1-yl)methyl)cyclobutan-1-ol]	1 nM	64.2 nM		
COc1cccc2c1nc(N)n1nc([C@@H]3CCCN(c4cnn([C@H]5CCCC[C@H]5O)c4)C3)nc21 [Example 24, (1R,2S)-2-(4-((R)-3-(5-amino-7-methoxy-[1,2,4]triazolo[1,5-c]quinazolin-2-yl)piperidin-1-yl)-1H-pyrazol-1-yl)cyclohexan-1-ol]	2.9 nM	6.9 nM		
COc1cccc2c1nc(N)n1nc([C@@H]3CCCN(c4cnn([C@@H]5CCCC[C@@H]5O)c4)C3)nc21 [Example 25]	2.3 nM	5.7 nM		
CNC(=O)C(C)(C)n1cc(N2CCC[C@@H](c3nc4c5cccc(OC)c5nc(N)n4n3)C2)cn1 [Example 26, (R)-2-(4-(3-(5-annino-7-methoxy-[1,2,4]triazolo[1,5-c]quinazolin-2-yl)piperidin-1-yl)-1H-pyrazol-1-yl)-N,2-dimethylpropanamide]	3.5 nM	2 nM		

The remaining lines, values ahead:

IC50 [1]	IC50 [2]	A2B binding % inh. @ 10000 nM [2]	A2A binding % inh. @ 10000 nM ([1]; @ 10000 nM, unstarred)	SMILES
0.8 nM	84.9 nM			COc1ccc2c(c1)nc(N)n1nc([C@@H]3C[C@H](C)CN(c4cnn(CC(C)(C)O)c4)C3)nc21 (single isomer, unassigned) [Example 195D]
0.4 nM	8.4 nM			C[C@H]1CC[C@@H](c2nc3c4ccc(Br)cc4nc(N)n3n2)CN1c1cnn(CC(C)(C)O)c1 (single isomer, unassigned) [Example 198, 1-(4-((2S,5R or 2R,5S)-5-(5-amino-8-bromo-[1,2,4]triazolo[1,5-c]quinazolin-2-yl)-2-methylpiperidin-1-yl)-4H-pyrazol-1-yl)-2-methylpropan-2-ol]
0.4 nM	5.5 nM			C[C@H]1CC[C@@H](c2nc3c4ccc(C5CC5)cc4nc(N)n3n2)CN1c1cnn(CC(C)(C)O)c1 (single isomer, unassigned) [Example 205, 1-(4-((2S, 5R or 2R,5S)-5-(5-amino-8-cyclopropyl-[1,2,4]triazolo[1,5-c]quinazolin-2-yl)-2-methylpiperidin-1-yl)-1H-pyrazol-1-yl)-2-methylpropan-2-ol]
0.3 nM	20.7 nM			Cc1ccc2c(c1)nc(N)n1nc([C@@H]3CC[C@H](C)N(c4cnn(CC(C)(C)O)c4)C3)nc21 (single isomer, unassigned) [Example 206, 1-(4-((2S, 5R or 2R,5S)-5-5-amino-8-methyl-[1,2,4]triazolo[1,5-c]quinazolin-2-yl)-2-methylpiperidin-1-yl)-1H-pyrazol-1-yl)-2-methylpropan-2-ol]
0.1 nM	3.2 nM			COc1ccc2c(c1)nc(N)n1nc([C@@H]3CC[C@H](C)N(c4cnn(C5CCC[C@@H]5O)c4)C3)nc21 (single isomer, unassigned) [Example 210B]
0.7 nM	1 nM			COc1cccc2c1nc(N)n1nc([C@@H]3CCCN(c4cnn(CC(F)(F)F)c4)C3)nc21 [Example 9, (R)-7-methoxy-2-(1-(1-(2,2,2-trifluoroethyl)-1H-pyrazol-4-yl)piperidin-3-yl)-[1,2,4]triazolo[1,5-c]quinazolin-5-amine]
1 nM	24.7 nM			COc1cccc2c1nc(N)n1nc([C@@H]3CCCN(c4cnn(C)c4)C3)nc21 [Example 17, (R)-7-methoxy-2-(1-(1-methyl-1H-pyrazol-4-yl)piperidin-3-yl)-[1,2,4]triazolo[1,5-c]quinazolin-5-amine]
0.5 nM	45.1 nM			COc1cccc2c1nc(N)n1nc([C@@H]3CCCN(c4cnn(C5(C)CC5)c4)C3)nc21 [Example 20, (R)-7-methoxy-2-(1-(1-(1-methylcyclopropyl)-1H-pyrazol-4-yl)piperidin-3-yl)-[1,2,4]triazolo[1,5-c]quinazolin-5-amine]
0.6 nM	111 nM			COc1cccc2c1nc(N)n1nc([C@@H]3CCCN(c4cnn(C5CCOCC5)c4)C3)nc21 [Example 21, (R)-7-methoxy-2-(1-(1-(tetrahydro-2H-pyran-4-yl)-1H-pyrazol-4-yl)piperidin-3-yl)-[1,2,4]triazolo[1,5-c]quinazolin-5-amine]
